Experiments:
[1] = molecular target: T1, Alpha-1A adrenergic receptor (Rattus norvegicus, UniProt P43140); assay: DRUGMATRIX: Alpha-1A adrenergic receptor radioligand binding (ligand: prazosin); assay type: cell membranes, Wistar, Submaxillary gland, Membrane; settings: Not Active = under 50% inhibition at 10 µM
T1 sequence (P43140 whole entry): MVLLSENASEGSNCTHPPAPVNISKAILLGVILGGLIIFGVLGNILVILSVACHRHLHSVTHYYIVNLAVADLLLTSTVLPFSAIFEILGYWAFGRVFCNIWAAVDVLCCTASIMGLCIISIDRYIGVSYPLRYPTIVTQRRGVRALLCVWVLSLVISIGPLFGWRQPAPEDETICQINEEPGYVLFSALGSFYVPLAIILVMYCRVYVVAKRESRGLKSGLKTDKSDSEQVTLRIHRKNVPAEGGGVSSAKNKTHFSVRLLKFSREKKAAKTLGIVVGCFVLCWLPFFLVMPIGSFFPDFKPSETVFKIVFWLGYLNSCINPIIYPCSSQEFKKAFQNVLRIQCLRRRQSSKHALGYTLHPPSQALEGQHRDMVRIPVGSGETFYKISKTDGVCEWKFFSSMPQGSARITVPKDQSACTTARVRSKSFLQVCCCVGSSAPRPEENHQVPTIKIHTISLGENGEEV

[2] = molecular target: T2, Cysteinyl leukotriene receptor 1 (Homo sapiens, UniProt Q9Y271); assay type: cell membranes, CHO-K1, Membrane; settings: cho-k1; further: in other assays of this panel Not Active means under 50% inhibition at 10 µM
T2 sequence (Q9Y271 whole entry): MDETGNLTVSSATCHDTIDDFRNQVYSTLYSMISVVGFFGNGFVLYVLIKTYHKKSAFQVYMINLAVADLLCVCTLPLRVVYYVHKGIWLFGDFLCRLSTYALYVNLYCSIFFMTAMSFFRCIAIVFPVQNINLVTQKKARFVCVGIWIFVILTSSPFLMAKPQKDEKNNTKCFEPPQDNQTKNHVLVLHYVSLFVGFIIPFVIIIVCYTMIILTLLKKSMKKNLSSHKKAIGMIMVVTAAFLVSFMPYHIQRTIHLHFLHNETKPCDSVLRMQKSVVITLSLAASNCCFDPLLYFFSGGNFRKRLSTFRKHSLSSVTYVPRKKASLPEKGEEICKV

[3] = DRUGMATRIX: Nicotinic Acetylcholine radioligand binding (ligand: [125I] Epibatidine); assay type: cell membranes, Membrane; settings: imr-32; Not Active = under 50% inhibition at 10 µM
[4] = molecular target: T3, Alpha-1B adrenergic receptor (Rattus norvegicus, UniProt P15823); assay: DRUGMATRIX: Alpha-1B adrenergic receptor radioligand binding (ligand: prazosin); assay type: cell membranes, Wistar, Liver, Membrane; settings: Not Active = under 50% inhibition at 10 µM
T3 sequence (P15823 whole entry): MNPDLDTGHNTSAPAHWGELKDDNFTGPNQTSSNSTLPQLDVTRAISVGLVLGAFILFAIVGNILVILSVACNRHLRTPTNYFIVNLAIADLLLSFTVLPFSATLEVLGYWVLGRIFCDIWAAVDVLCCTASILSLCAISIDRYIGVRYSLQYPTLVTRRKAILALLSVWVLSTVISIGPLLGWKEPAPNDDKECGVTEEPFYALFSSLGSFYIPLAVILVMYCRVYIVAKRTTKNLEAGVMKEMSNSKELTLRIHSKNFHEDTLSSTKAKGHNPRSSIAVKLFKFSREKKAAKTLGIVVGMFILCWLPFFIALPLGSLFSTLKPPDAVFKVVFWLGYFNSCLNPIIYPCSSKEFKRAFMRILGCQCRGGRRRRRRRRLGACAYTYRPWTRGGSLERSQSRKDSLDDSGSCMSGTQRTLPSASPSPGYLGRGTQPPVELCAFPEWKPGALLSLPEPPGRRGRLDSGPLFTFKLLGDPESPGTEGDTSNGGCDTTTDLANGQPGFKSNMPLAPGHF

[5] = molecular target: T4, Estrogen receptor (Homo sapiens, UniProt P03372); settings: sf9; further: in other assays of this panel Not Active means under 50% inhibition at 10 µM
T4 sequence (P03372 whole entry): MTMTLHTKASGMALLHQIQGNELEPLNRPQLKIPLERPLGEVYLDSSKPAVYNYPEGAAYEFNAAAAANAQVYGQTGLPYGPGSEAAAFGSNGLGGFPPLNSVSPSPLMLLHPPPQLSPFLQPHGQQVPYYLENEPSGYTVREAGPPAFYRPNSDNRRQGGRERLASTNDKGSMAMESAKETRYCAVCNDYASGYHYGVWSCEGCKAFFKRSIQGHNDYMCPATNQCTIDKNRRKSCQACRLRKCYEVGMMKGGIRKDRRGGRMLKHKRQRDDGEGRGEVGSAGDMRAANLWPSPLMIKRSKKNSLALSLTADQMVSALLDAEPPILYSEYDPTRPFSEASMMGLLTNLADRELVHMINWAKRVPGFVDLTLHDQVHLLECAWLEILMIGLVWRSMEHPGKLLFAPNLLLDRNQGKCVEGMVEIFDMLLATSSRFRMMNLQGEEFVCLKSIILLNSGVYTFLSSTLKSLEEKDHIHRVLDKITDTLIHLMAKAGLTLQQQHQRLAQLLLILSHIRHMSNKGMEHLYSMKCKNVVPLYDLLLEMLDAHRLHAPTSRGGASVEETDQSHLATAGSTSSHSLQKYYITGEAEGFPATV

[6] = molecular target: C-C chemokine receptor type 5 (Homo sapiens, UniProt P51681); assay type: cell membranes, HEK293, Membrane; settings: hek293; further: in other assays of this panel Not Active means under 50% inhibition at 10 µM
[7] = molecular target: Sodium-dependent noradrenaline transporter (Homo sapiens, UniProt P23975); assay: DRUGMATRIX: Norepinephrine Transporter radioligand binding (ligand: [125I] RTI-55); assay type: cell membranes, MDCK, Membrane; settings: Not Active = under 50% inhibition at 10 µM
[8] = molecular target: T5, Muscarinic acetylcholine receptor M4 (Homo sapiens, UniProt P08173); assay type: cell membranes, CHO-K1, Membrane; further: in other assays of this panel Not Active means under 50% inhibition at 10 µM
T5 sequence (P08173 whole entry): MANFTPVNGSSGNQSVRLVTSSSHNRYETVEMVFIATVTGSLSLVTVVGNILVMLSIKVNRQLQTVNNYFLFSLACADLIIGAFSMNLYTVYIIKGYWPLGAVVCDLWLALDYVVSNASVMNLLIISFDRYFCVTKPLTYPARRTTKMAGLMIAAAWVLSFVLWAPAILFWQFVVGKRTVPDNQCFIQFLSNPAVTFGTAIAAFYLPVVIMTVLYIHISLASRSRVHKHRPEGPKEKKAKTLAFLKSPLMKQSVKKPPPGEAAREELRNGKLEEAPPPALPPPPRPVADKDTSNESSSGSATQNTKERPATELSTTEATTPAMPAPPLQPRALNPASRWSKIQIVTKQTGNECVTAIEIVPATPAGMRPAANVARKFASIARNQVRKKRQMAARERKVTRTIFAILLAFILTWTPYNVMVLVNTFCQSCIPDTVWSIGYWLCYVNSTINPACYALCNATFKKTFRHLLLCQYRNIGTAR

C-C chemokine receptor type 5, sequence (P51681 whole entry): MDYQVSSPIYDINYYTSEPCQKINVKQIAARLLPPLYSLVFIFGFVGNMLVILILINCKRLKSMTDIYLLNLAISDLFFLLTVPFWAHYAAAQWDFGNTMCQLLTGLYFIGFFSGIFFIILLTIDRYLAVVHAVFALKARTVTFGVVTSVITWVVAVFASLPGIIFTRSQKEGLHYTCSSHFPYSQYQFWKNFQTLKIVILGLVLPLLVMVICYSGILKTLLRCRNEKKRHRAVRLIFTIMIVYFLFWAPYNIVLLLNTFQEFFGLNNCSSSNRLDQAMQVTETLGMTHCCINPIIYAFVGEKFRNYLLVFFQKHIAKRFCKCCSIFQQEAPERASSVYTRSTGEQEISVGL
Sodium-dependent noradrenaline transporter, sequence (P23975 whole entry): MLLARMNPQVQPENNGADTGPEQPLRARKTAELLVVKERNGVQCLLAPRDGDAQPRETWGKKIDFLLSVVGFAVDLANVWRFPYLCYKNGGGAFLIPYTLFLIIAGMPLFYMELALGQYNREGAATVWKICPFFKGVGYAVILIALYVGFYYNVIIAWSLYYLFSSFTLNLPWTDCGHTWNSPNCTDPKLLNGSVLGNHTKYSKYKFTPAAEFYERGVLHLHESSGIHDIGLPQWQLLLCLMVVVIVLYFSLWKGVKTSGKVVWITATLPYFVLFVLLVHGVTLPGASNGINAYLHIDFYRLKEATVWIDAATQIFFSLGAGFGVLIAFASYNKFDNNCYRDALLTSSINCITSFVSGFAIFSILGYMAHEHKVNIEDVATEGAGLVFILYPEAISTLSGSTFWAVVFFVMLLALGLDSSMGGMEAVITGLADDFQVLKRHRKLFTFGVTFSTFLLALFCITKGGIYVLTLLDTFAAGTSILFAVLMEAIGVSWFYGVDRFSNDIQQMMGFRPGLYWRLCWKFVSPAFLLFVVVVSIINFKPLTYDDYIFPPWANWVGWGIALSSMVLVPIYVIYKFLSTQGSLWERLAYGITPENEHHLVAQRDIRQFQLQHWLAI

CCOC(=O)C(C)(C)Oc1ccc(Cl)cc1 [CLOFIBRATE]
Not Active: IC50 [1] | IC50 [2] | IC50 [3] | Ki [3] | IC50 [4] | IC50 [5] | IC50 [6] | IC50 ([7]; mdck) | IC50 ([8]; cho-k1)

COC(=O)C1=C(C)NC(C)=C(C(=O)OCC(C)C)C1c1ccccc1[N+](=O)[O-] (centres undefined) [NISOLDIPINE]
Not Active: IC50 [1] | IC50 [2] | IC50 [3] | Ki [3] | IC50 [4] | IC50 [5] | IC50 [6] | IC50 ([7]; mdck) | IC50 ([8]; cho-k1)

Cc1cc(=O)n(-c2ccccc2)n1C [ANTIPYRINE]
Not Active: IC50 [1] | IC50 [2] | IC50 [3] | Ki [3] | IC50 [4] | IC50 [5] | IC50 [6] | IC50 ([7]; mdck) | IC50 ([8]; cho-k1)

CC1(C)O[C@@H]2C[C@H]3[C@@H]4C[C@H](F)C5=CC(=O)CC[C@]5(C)[C@H]4[C@@H](O)C[C@]3(C)[C@]2(C(=O)CO)O1 [FLURANDRENOLIDE]
Not Active: IC50 [1] | IC50 [2] | IC50 [3] | Ki [3] | IC50 [4] | IC50 [5] | IC50 [6] | IC50 ([7]; mdck) | IC50 ([8]; cho-k1)

CC(=O)OCC(=O)[C@@]1(O)CC[C@H]2[C@@H]3CCC4=CC(=O)CC[C@]4(C)[C@H]3C(=O)C[C@@]21C [CORTISONE ACETATE]
Not Active: IC50 [1] | IC50 [2] | IC50 [3] | Ki [3] | IC50 [4] | IC50 [5] | IC50 [6] | IC50 ([7]; mdck) | IC50 ([8]; cho-k1)

NC(=O)c1cnccn1 [PYRAZINAMIDE]
Not Active: IC50 [1] | IC50 [2] | IC50 [3] | Ki [3] | IC50 [4] | IC50 [5] | IC50 [6] | IC50 ([7]; mdck) | IC50 ([8]; cho-k1)

CCc1c2c(nc3ccc(OC(=O)N4CCC(N5CCCCC5)CC4)cc13)-c1cc3c(c(=O)n1C2)COC(=O)[C@]3(O)CC [IRINOTECAN]
1560 nM: IC50 ([8]; read-out: IC50)
Not Active: IC50 [1] | IC50 [2] | IC50 [3] | Ki [3] | IC50 [4] | IC50 [5] | IC50 [6] | IC50 ([7]; mdck)
217 nM: Ki ([8]; read-out: Ki)

CCCC(CCC)C(=O)O [VALPROIC ACID]
Not Active: IC50 [1] | IC50 [2] | IC50 [3] | Ki [3] | IC50 [4] | IC50 [5] | IC50 [6] | IC50 ([7]; mdck) | IC50 ([8]; cho-k1)

Cc1ccccc1C(=O)N1CCC(Cc2ccccc2)CC1
Not Active: IC50 [1] | IC50 [2] | IC50 [3] | Ki [3] | IC50 [4] | IC50 [5] | IC50 [6] | IC50 ([7]; mdck) | IC50 ([8]; cho-k1)

CCCC(=O)Nc1ccc(OCC(O)CNC(C)C)c(C(C)=O)c1 (centres undefined) [ACEBUTOLOL]
Not Active: IC50 [1] | IC50 [2] | IC50 [3] | Ki [3] | IC50 [4] | IC50 [5] | IC50 [6] | IC50 ([7]; mdck) | IC50 ([8]; cho-k1)

Cc1ccc(S(=O)(=O)NC(=O)NN2CC3CCCC3C2)cc1 (centres undefined) [GLICLAZIDE]
Not Active: IC50 [1] | IC50 [2] | IC50 [3] | Ki [3] | IC50 [4] | IC50 [5] | IC50 [6] | IC50 ([7]; mdck) | IC50 ([8]; cho-k1)

N=C(N)NC(=O)c1nc(Cl)c(N)nc1N [AMILORIDE]
Not Active: IC50 [1] | IC50 [2] | IC50 [3] | Ki [3] | IC50 [4] | IC50 [5] | IC50 [6] | IC50 ([7]; mdck) | IC50 ([8]; cho-k1)

CC(C)(Oc1ccc(C2CCCc3ccccc32)cc1)C(=O)O (centres undefined) [NAFENOPIN]
Not Active: IC50 [1] | IC50 [2] | IC50 [3] | Ki [3] | IC50 [4] | IC50 [5] | IC50 [6] | IC50 ([7]; mdck) | IC50 ([8]; cho-k1)

Cc1cc2cc3c(C)cc(=O)oc3c(C)c2o1 [TRIOXSALEN]
Not Active: IC50 [1] | IC50 [2] | IC50 [3] | Ki [3] | IC50 [4] | IC50 [5] | IC50 [6] | IC50 ([7]; mdck) | IC50 ([8]; cho-k1)

Oc1ccc(OCc2ccccc2)cc1 [MONOBENZONE]
3850 nM: Ki ([7]; read-out: Ki)
3890 nM: IC50 ([7]; read-out: IC50)
Not Active: IC50 [1] | IC50 [2] | IC50 [3] | Ki [3] | IC50 [4] | IC50 [5] | IC50 [6] | IC50 ([8]; cho-k1)

COc1cccc2c1C(=O)c1c(O)c3c(c(O)c1C2=O)C[C@@](O)(C(=O)CO)C[C@@H]3O[C@H]1C[C@H](N)[C@@H](O)[C@H](C)O1 [EPIRUBICIN]
Not Active: IC50 [1] | IC50 [2] | IC50 [3] | Ki [3] | IC50 [4] | IC50 [5] | IC50 [6] | IC50 ([7]; mdck) | IC50 ([8]; cho-k1)

CCCCN1CCCCC1C(=O)Nc1c(C)cccc1C.Cl (centres undefined) [BUPIVACAINE HYDROCHLORIDE]
Not Active: IC50 [1] | IC50 [2] | IC50 [3] | Ki [3] | IC50 [4] | IC50 [5] | IC50 [6] | IC50 ([7]; mdck) | IC50 ([8]; cho-k1)

COP(=O)(OC)OC=C(Cl)Cl [DICHLORVOS]
Not Active: IC50 [1] | IC50 [2] | IC50 [3] | Ki [3] | IC50 [4] | IC50 [5] | IC50 [6] | IC50 ([7]; mdck) | IC50 ([8]; cho-k1)

Reference: ChEMBL document CHEMBL1909046, “DrugMatrix in vitro pharmacology data”
